According to patent publication US7268154B2, “Substituted triazole compounds” (Hoffman-La Roche Inc., priority 2005, dated 2007):

Biological target: T1, NK-3 receptor (HEK293 stably expressing NK3) (Homo sapiens, UniProt P29371)
T1 construct: expressed in transfected cells
T1 sequence (P29371 1-465): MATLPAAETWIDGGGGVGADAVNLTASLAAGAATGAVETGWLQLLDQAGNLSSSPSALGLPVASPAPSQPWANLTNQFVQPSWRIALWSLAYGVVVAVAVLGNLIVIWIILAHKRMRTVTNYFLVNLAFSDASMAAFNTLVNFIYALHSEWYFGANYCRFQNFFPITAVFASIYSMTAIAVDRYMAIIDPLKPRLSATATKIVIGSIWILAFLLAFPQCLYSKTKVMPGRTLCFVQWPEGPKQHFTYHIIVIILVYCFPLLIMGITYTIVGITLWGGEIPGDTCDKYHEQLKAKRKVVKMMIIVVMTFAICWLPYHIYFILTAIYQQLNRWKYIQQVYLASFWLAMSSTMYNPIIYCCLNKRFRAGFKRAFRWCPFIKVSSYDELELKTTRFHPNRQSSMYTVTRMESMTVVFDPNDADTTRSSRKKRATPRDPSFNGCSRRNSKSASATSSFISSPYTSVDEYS
Assay: Calcium mobilization assay (FLIPR): enhancement of the Neurokinin B agonist response
Format: cell-based
Details: for EC50: agonist Neurokinin B with or without enhancer, Fluo-4 fluorescence, read-out: EC50 (efficacy as allosteric positive modulator of NK-3 receptor); for fold increase of the Neurokinin B agonistic effect: value in parentheses after EC50
Protocol: Calcium mobilization assay: HEK293 stably expressing NK3 were seeded at a density of 50,000 cells into poly-D-lysine coated 96-well blackwall, clear-bottom microtiter plates (Becton Dickinson Labware, Bedford, Mass.). One day later, the medium was removed, and 100 μl loading medium [HBSS without phenol red, supplemented with 20 mM HEPES-acid, and 2 μM Fluo-4AM solubilized in 0.5 mM Pluronic F-127/DMSO (Molecular Probes, Leiden, The Netherlands)] was added. Cells were loaded for 1 h at 37° C., washed twice with 150 μl assay buffer (loading buffer without Fluo-4 AM), and then 260 μl assay buffer was added. Cells were further pre-incubated at room temperature before adding the agonist Neurokinin B with or without enhancer in 50 μl assay buffer and then measured on a T-channel fluorimetric imaging plate reader (FLIPR, Molecular Devices, Sunnyvale, Calif.). Maximum change in fluorescence over baseline was used to determine agonist response.
The efficacy as allosteric positive modulators of neurokinin 3 (NK-3) receptors is given in the table below as EC50 and fold increase of the Neurokinin B agonistic effect. The EC50 of preferred compounds is <5.0 μM.

| Structure (SMILES) | EC50 | fold increase of the Neurokinin B agonistic effect |
| --- | --- | --- |
| O=C(N[C@H]1CC[C@@H](n2cc(C(=O)N3CCCC3)nn2)CC1)c1ccc(Cl)cc1 [Example 9, 4-Chloro-N-{cis-4-[4-(pyrrolidine-1-carbonyl)-[1,2,3]triazol-1-yl]-cyclohexyl}-benzamide] | 2.3 µM | 2.2 fold |
| O=C(Cc1c(F)cccc1Cl)N[C@H]1CC[C@@H](n2cc(C(=O)N3CCCC3)nn2)CC1 [Example 1, 2-(2-Chloro-6-fluoro-phenyl)-N-{cis-4-[4-(pyrrolidine-1-carbonyl)-[1,2,3]triazol-1-yl]-cyclohexyl}-acetamide] | 3.7 µM | 2.3 fold |
| COc1ccccc1C(=O)N[C@H]1CC[C@@H](n2cc(C(=O)N3CCCC3)nn2)CC1 [Example 6, 2-Methoxy-N-{cis-4-[4-(pyrrolidine-1-carbonyl)-[1,2,3]triazol-1-yl]-cyclohexyl}-benzamide] | 4.2 µM | 3.2 fold |
| O=C(c1cn([C@H]2CC[C@@H](NC(=O)C3(c4c(F)cccc4Cl)CCCC3)CC2)nn1)N1CCCC1 [Example 17, 1-(2-Chloro-6-fluoro-phenyl)-cyclopentanecarboxylic acid {cis-4-[4-(pyrrolidine-1-carbonyl)-[1,2,3]triazol-1-yl]-cyclohexyl}-amide] | 0.77 µM | 1.8 fold |
| O=C(N[C@H]1CC[C@@H](n2cc(C(=O)N3CCCC3)nn2)CC1)c1cccc(-c2ccc(F)cc2)c1 [Example 3, 4′-Fluoro-biphenyl-3-carboxylic acid {cis-4-[4-(pyrrolidine-1-carbonyl)-[1,2,3]triazol-1-yl]-cyclohexyl}-amide] | 0.86 µM | 1.6 fold |
| COc1ccc(C(=O)N[C@H]2CC[C@@H](n3cc(C(=O)N4CCCC4)nn3)CC2)cc1OC [Example 7, 3,4-Dimethoxy-N-{cis-4-[4-(pyrrolidine-1-carbonyl)-[1,2,3]triazol-1-yl]-cyclohexyl}-benzamide] | 4.5 µM | 5.6 fold |
| Cc1cccc(-c2cccc(C(=O)N[C@H]3CC[C@@H](n4cc(C(=O)N5CCCC5)nn4)CC3)c2)c1 [Example 2, 3′-Methyl-biphenyl-3-carboxylic acid {cis-4-[4-(pyrrolidine-1-carbonyl)-[1,2,3]triazol-1-yl]-cyclohexyl}-amide] | 0.2 µM | 1.5 fold |
| O=C(Cc1c(F)cccc1Cl)N[C@H]1CC[C@@H](n2cc(C(=O)Nc3ccccc3)nn2)CC1 [Example 19, 1-{cis-4-[2-(2-Chloro-6-fluoro-phenyl)-acetylamino]-cyclohexyl}-1H-[1,2,3]triazole-4-carboxylic acid phenylamide] | 1.8 µM | 1.6 fold |
| Cc1cc(Cl)ccc1OC(C)C(=O)N[C@H]1CC[C@@H](n2cc(C(=O)N3CCCC3)nn2)CC1 (relative stereo) [Example 4, 2-(4-Chloro-2-methyl-phenoxy)-N-{cis-4-[4-(pyrrolidine-1-carbonyl)-[1,2,3]triazol-1-yl]-cyclohexyl}-propionamide] | 0.56 µM | 1.7 fold |
